We go through 19 molecules from BindingDB's records for doi:10.1016/j.bioorg.2016.07.010 (Universiti Teknologi Mara (Uitm), 2016).

Thymidine phosphorylase, sequence (B7MNI9 whole entry): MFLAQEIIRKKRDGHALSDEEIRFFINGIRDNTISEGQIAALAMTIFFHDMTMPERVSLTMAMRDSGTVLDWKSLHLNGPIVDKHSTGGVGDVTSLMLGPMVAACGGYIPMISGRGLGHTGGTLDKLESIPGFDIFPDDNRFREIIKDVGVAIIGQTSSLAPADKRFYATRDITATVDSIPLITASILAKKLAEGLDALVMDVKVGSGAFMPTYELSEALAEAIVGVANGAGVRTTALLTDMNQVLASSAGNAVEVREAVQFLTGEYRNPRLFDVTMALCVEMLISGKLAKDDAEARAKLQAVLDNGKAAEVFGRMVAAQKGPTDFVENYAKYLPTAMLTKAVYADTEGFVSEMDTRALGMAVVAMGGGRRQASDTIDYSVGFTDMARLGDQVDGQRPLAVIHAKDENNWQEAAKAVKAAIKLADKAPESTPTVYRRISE

The target in the experiment is Thymidine phosphorylase (Escherichia coli O45:K1 (strain S88 / ExPEC), UniProt B7MNI9). Description: Thymidine Phosphorylase Assay. The note with it: pH 7.4; 25 °C. On the procedure:
The Thymidine phosphorylase/PD-ECGF (E. coli) activity was determined by measuring the absorbance at 290 nm spectrophotometrically. In brief, total reaction mixture of 200 uL contained 145 uL of potassium phosphate buffer (pH 7.4), 30 uL of enzyme (E. coli) at concentration 0.05 and 0.002 U, respectively, were incubated with 5 uL of test materials for 10 min at 25 °C in microplate reader. After incubation, preread at 290 nm was taken to deduce the absorbance of substrate particles. Substrate (20 uL, 1.5 mM), was dissolved in potassium phosphate buffer, was immediately added to plate and continuously read after 10, 20, and 30 min in microplate reader (spectra max, molecular devices, CA, USA). All assays were performed in triplicate.
As for `O=c1[nH]c(=O)c2cc[nH]c2[nH]1` [1,7-Dihydro-pyrrolo[2,3-d]pyrimidine-2,4-dione], inhibition was half-maximal at 38.7 µM (IC50).
Take `Clc1ccccc1/C=N/Nc1cnc2ccccc2n1` [(E)-2-(2-(2-chlorobenzylidene)hydrazinyl)quinoxaline (4)]: half-maximal inhibition (IC50) was put at 37.6 µM.
Regarding `Fc1ccccc1/C=N/Nc1cnc2ccccc2n1` [(E)-2-(2-(2-fluorobenzylidene)hydrazinyl)quinoxaline (1)], the half-inhibitory concentration (IC50) (commonly the point on the concentration scale where inhibition reaches its midpoint) stood at 33.6 µM.
With `Clc1cccc(/C=N/Nc2cnc3ccccc3n2)c1` [(E)-2-(2-(3-chlorobenzylidene)hydrazinyl)quinoxaline (5)] the figure was 93.5 µM.
Turning to `Fc1cccc(/C=N/Nc2cnc3ccccc3n2)c1` [(E)-2-(2-(3-fluorobenzylidene)hydrazinyl)quinoxaline (2)], the 50% inhibitory concentration (IC50) was 66.1 µM.
The molecule `Fc1ccc(/C=N/Nc2cnc3ccccc3n2)cc1` [(E)-2-(2-(4-fluorobenzylidene)hydrazinyl)quinoxaline (3)] registered an IC50 of 58.1 µM.
With `C(=N\Nc1cnc2ccccc2n1)/c1c[nH]c2ccccc12` [(E)-2-(2-((1H-indol-3-yl)methylene)hydrazinyl)quinoxaline (27)] the figure was 84.3 µM.
As to `Oc1ccc(O)c(/C=N/Nc2cnc3ccccc3n2)c1` [(E)-2-((2-(quinoxalin-2-yl)hydrazono)methyl)benzene-1,4-diol (16)], the IC50 is 35.5 µM.
With `Oc1ccccc1/C=N/Nc1cnc2ccccc2n1` [(E)-2-((2-(quinoxalin-2-yl)hydrazono)methyl)phenol (28)] the figure was 37.2 µM; with `COc1ccc(/C=N/Nc2cnc3ccccc3n2)cc1O` [(E)-2-methoxy-5-((2-(quinoxalin-2-yl)hydrazono)methyl)phenol (21)], 46.9 µM.
Molecule `Oc1cccc(/C=N/Nc2cnc3ccccc3n2)c1O` [(E)-3-((2-(quinoxalin-2-yl)hydrazono)methyl)benzene-1,2-diol (14)] had an IC50 of 15.4 µM.
In turn, `Oc1cccc(/C=N/Nc2cnc3ccccc3n2)c1` [(E)-3-((2-(quinoxalin-2-yl)hydrazono)methyl)phenol (12)] gave an IC50 of 63.2 µM.
The value for `Oc1ccc(/C=N/Nc2cnc3ccccc3n2)cc1O` [(E)-4-((2-(quinoxalin-2-yl)hydrazono)methyl)benzene-1,2-diol (17)] was 8.6 µM.
The value for `Oc1ccc(/C=N/Nc2cnc3ccccc3n2)c(O)c1` [(E)-4-((2-(quinoxalin-2-yl)hydrazono)methyl)benzene-1,3-diol (15)] was 33.4 µM.
With `Oc1ccc(/C=N/Nc2cnc3ccccc3n2)cc1` [(E)-4-((2-(quinoxalin-2-yl)hydrazono)methyl)phenol (13)] the figure was 48.6 µM.
The molecule `COc1ccc(O)c(/C=N/Nc2cnc3ccccc3n2)c1` [(E)-4-methoxy-2-((2-(quinoxalin-2-yl)hydrazono)methyl)phenol (24)] returned a 50% inhibitory concentration (IC50) of 36.3 µM.
The value for `Oc1cc(O)c(/C=N/Nc2cnc3ccccc3n2)cc1O` [(E)-5-((2-(quinoxalin-2-yl)hydrazono)methyl)benzene-1,2,4-triol (18)] was 3.2 µM.
`Oc1cc(O)c(/C=N/Nc2cnc3ccccc3n2)c(O)c1` [(E)-5-((2-(quinoxalin-2-yl)hydrazono)methyl)benzene-2,4,6-triol (19)] showed an IC50 of 9.1 µM.
Consider `COc1ccc(/C=N/Nc2cnc3ccccc3n2)c(O)c1` [(E)-5-methoxy-2-((2-(quinoxalin-2-yl)hydrazono)methyl)phenol (20)], for which 34.4 µM corresponded to half-maximal inhibition (IC50).
